Patent US20090215171A1, “PELCAM-1-related molecules compositions kit of parts and associated methods of use” (The Johns Hopkins University, priority 2004, published 2009)

Test system: HUVECs
Experiment: Measurement of intracellular free [Ca2+]i in HUVEC suspension (Fura-2/AM, thrombin stimulation)
Format: cell-based, human
Settings: rest HUVEC; 16 h treatment; Ab 0.4 and 1.6 μg/mL, peptides 15 and 30 μg/mL; thrombin 1 U/ml
Procedure: HUVECs were cultured in EGM™ supplied with 10% of fetal bovine serum (FBS, dialyzed) to early confluence. HUVECs (passage number 3-4) were pre-incubated with and without TNF-α (5 ng/mL, 4 hour), next the cells were subjected to various doses of the JHS-7 Ab, accompanied by the pAb-C (c-terminal anti-PECAM-1 antibody) and a rabbit IgG (both served as controls). In addition, HUVECs were also incubated with a various doses of the JHS-7 peptide and a scrambled peptide served as its control. The treatments were carried out in EGM™ supplied with 2% of FBS for 16 hours. […] All above-mentioned peptides and antibodies were tested endotoxin free with an endotoxin detection kit (Sigma E-TOXATE®). Cell viability was determined with trypan blue exclusion assay after the incubation and no cytotoxic effect was observed under the Applicants' experimental conditions. HUVEC monolayers, following the incubation, were subjected to the following assays simultaneously: 1) monocyte TEM assay; 2) [Ca^2+]i measurement. […] Experimental results were calculated as average levels and plotted as % controls.
[Ca^2+]i measurement was conducted as described previously with slight modification. […] Fluorescence was recorded using a spectrofluorometer (Perkin Elmer LS-50B), with excitation and emission wavelengths of 340 and 505 nm, respectively. […]

scrambled peptide: control peptide of identical amino acid composition but different sequence TEDVLVPQNKSDNKATNNAFPNVSYVDEEDC (SEQ ID NO: 4) (Nonsense peptide with no known matches.)
thrombin stimulatable [Ca2+]i: no effect
